Test: Visual observation of solubility in organic solvent with and without CO2 pressure (windowed vessel)
Assay type: physicochemical
Conditions: 35° C.; for solubility in cyclohexane / solubility in CO2-expanded cyclohexane: 64 mg in 5 mL cyclohexane; for solubility in cyclohexane: 1 atm CO2, visual; for solubility in CO2-expanded cyclohexane: CO2 pressure 59 bar
Experimental: The bis(methanol) adduct of complex 2 (Rh2(O2C(CF2)9F)4(MeOH)2, 64 mg) was placed in a windowed vessel along with a stir bar and 5 mL of cyclohexane, all at 35° C. […] The CO2 under these conditions is not supercritical and in the absence of the cyclohexane would not be liquid. […] When the CO2 pressure was released (slowly, so that the solvent was not lost by entrainment), then the liquid phase returned to its original volume and colour and the complex precipitated. The IR spectrum of the solid was identical to that of the original Rh2(O2C(CF2)9F)4(MeOH)2.
The IR spectrum of the complex after precipitation is identical to that of the starting material. […] For example, complex 3 was insoluble in toluene at 26° C., dissolved in CO2-expanded toluene at 54 bar CO2 and was subsequently precipitated after CO2 release.

[1] = listed as Rh2(O2C(CF2)9F)4(MeOH)2

CO.CO.O=C([O-])C(F)(F)C(F)(F)C(F)(F)C(F)(F)C(F)(F)C(F)(F)C(F)(F)C(F)(F)C(F)(F)F.O=C([O-])C(F)(F)C(F)(F)C(F)(F)C(F)(F)C(F)(F)C(F)(F)C(F)(F)C(F)(F)C(F)(F)F.O=C([O-])C(F)(F)C(F)(F)C(F)(F)C(F)(F)C(F)(F)C(F)(F)C(F)(F)C(F)(F)C(F)(F)F.O=C([O-])C(F)(F)C(F)(F)C(F)(F)C(F)(F)C(F)(F)C(F)(F)C(F)(F)C(F)(F)C(F)(F)F.[Rh+3].[Rh+3] [bis(methanol) adduct of complex 2, Rh2(O2C(CF2)9F)4(MeOH)2]
solubility in cyclohexane: completely insoluble | solubility in cyclohexane [1]: insoluble | solubility in CO2-expanded cyclohexane: complete dissolution | solubility in CO2-expanded cyclohexane [1]: dissolves readily | solubility in gaseous CO2 (upper phase) (59 bar CO2, upper gaseous phase showed no discoloration): no solubility
